Legend:
[1] = HA1C lowering in a person ingesting L-glutamine; type: in vivo; details: one person, baseline 6.9%; 30 g per day as an aqueous solution, ingested; after three months
Description: The person ingested 30 g of L-glutamine per day as an aqueous solution. After three months of L-glutamine administration, the person's Hb A1C level was measured at 6.1%.

[2] = Triglyceride lowering in a person ingesting L-glutamine; type: in vivo; details: one person, baseline 500 mg/dL; 30 g per day as an aqueous solution, ingested; after three months
Description: The person ingested 30 g of L-glutamine per day as an aqueous solution. After three months of L-glutamine administration, the person's triglyceride blood level was measured at 150 mg/dL.

With `NC(=O)CC[C@H](N)C(=O)O` [L-glutamine] the “glycolated hemoglobin level (Hb A1C level)” value [1] was 6.1% and the triglyceride blood level [2] was 150 mg/dL.
